These results are taken from US20250129009A1, “Compound and Method for Identifying Impurities Included Therein” (LG CHEM, LTD., priority 2022, published 2025).

The data set is described as follows: Measurement of turbidity by UV/Vis spectroscopy (Method 1). The data set is classed as physicochemical. As to conditions: 20 wt % aqueous solution; for Absorbance: light at 290 nm, 1 mm cuvette, DI water reference. The method, then:
A 20 wt % aqueous solution of the compound is analyzed by UV/Vis spectroscopy to measure the absorbance Abs to light at a wavelength of 290 nm, and the turbidity Tb is derived from the measured absorbance Abs by the following Equation 1.
A 20 wt % aqueous solution of the compound is analyzed by UV/Vis spectroscopy to measure the absorbance Abs to light at a wavelength of 290 nm, and a turbidity Tb is derived from the measured absorbance Abs by the following Equation 1.
The absorbance of light at a wavelength of 290 nm is confirmed by analyzing 5 types of turbidity standard solutions (0, 1, 10, 100, and 1000 NTU, respectively) by UV/Vis spectroscopy (using Agilent 8453, 200 to 1100 nm, resolution 2 nm, 1 mm cuvette). In this case, an empty cuvette cell is used as a reference for measurement. A calibration curve (Equation 1) is derived from the absorbance according to the 0 NTU to 1,000 NTU interval. (NTU: Nephelometric Turbidity Unit, water quality standard 1 NTU)
UV/Vis was measured for Samples 1 to 7 prepared in Preparation Example B above using Method 1 of the present disclosure, and the results are illustrated in FIG. 1. Further, values obtained by converting the measured absorbance (Abs) into turbidity using the following Equation 1 are shown in the following Table 1.
500 mg of each of Samples 1 to 7 were put into a vial, a 20 wt % aqueous solution was prepared using distilled water (DI water), and then UV/Vis spectroscopy (using Agilent 8453, 200 to 1100 nm, resolution 2 nm, 1 mm cuvette) was analyzed to confirm the absorbance of light at a wavelength of 290 nm. In this case, DI water was used as a reference for measurement.
The absorbance of light at a wavelength of 290 nm was confirmed by analyzing 5 types of turbidity standard solutions (0, 1, 10, 100, and 1000 NTU, respectively) by UV/Vis spectroscopy (using Agilent 8453, 200 to 1100 nm, resolution 2 nm, 1 mm cuvette). In this case, an empty cuvette cell was used as a reference for measurement.
A calibration curve (Equation 1) was derived from the absorbance according to the 0 NTU to 1,000 NTU interval. (NTU: Nephelometric Turbidity Unit, water quality standard 1 NTU)
Turbidity was derived by introducing the absorbance of Samples 1 to 7 confirmed in 1) above into Equation 1.

For `C=CC(=O)OCC[N+](CCCC)(CCCC)CCCCCCCCCCCC` [Sample 2], the Absorbance is 0.1615.

Compound `C=CC(=O)OCC[N+](CCCC)(CCCC)CCCCCCCCCCCC` [Sample 3] gave an Absorbance of 0.3459. Regarding `C=CC(=O)OCC[N+](CCCC)(CCCC)CCCCCCCCCCCC` [Sample 5], the Absorbance was 0.2796. In addition, the Turbidity (converted from absorbance at 290 nm by Equation 1 (calibration 0 to 1,000 NTU standards)) is 74.
